{"source": "patent US20090018120A1", "about": "“AMIDINE DERIVATIVES AND THEIR APPLICATIONS AS A MEDICAMENT” (priority 2005, published 2009)", "key": {"[1]": {"tested_on": "neuromast ciliated cells of Zebrafish", "assay": "Ototoxicity induced by gentamycin in Zebrafish: protection of neuromast ciliated cells (DASPEI staining)", "assay_type": "in vivo", "details": "for EC50: Danio rerio, 0, 25, 50, 100 μM, co-treatment with gentamycin 1 μg/ml, concentration which allows 50% of stained cells to be visualized, read-out: EC50 μM (survival of the ciliated cells in % of the control); for control % (% staining signal of the ciliated cells): positive control = 100%", "from_the_text": "Ototoxicity Induced after a Treatment with Gentamycin: Protective Effect of the Compounds According to the Invention\nPrinciple of the test: gentamycin and other aminoglycosides cause damage to ciliated cells and a hearing loss in humans. Zebrafish have sensory organs known as neuromasts on the surface of their body. These neuromast ciliated cells are structurally and functionally similar to the internal ciliated cells of the human ear. In these fish, the neuromast ciliated cells can be stained with DASPEI (2,4-dimethyl-aminostyryl-N-ethyl pyridinium iodide) and this staining reflects the number of functional ciliated cells.\nDamage to the internal ciliated cells is induced in the Zebrafish with a gentamycin treatment. In order to test the protective effect of the compound to be tested on ciliated cells damaged by gentamycin, the compound was administered as a co-treatment with gentamycin. The internal ciliated cells are then stained and quantified.\nThe study is carried out on 5-day old fish, incubated with 1 μg/ml of gentamycin for 24 hours in the presence or the absence of the compound. Controls are carried out in parallel; vehicle alone (1% DMSO; positive control). Fish treated with gentamycin only are the negative controls.\nThe EC50 (concentration of the substance to be tested which protects 50% of the cells from cell death) is calculated from this concentration-effect.\nThe DASPEI staining is carried out to visualize the ciliated cells in vivo (n=6 per group). Morphometric analysis is used to quantify the staining signal of the ciliated cells. The DASPEI staining signal of the positive controls was defined as 100%.\nPositive control (Zebrafish-1% DMSO); Negative control (Zebrafish-1% DMSO-gentamycin 1 μg/ml) and effect of the products (Zebrafish-1% DMSO-gentamycin-compound). Experiment carried out on 6 animals per group."}, "calpain": {"tested_on": "calpain", "assay": "Effect in situ on the calpain enzymatic activity of human skeletal cells (SKM), maitotoxin-activated, Suc-Leu-Tyr-AMC substrate", "assay_type": "cell-based", "details": "read-out: IC50 (concentration which inhibits 50% of the enzyme activity), SKM myotubes, 3 h at 30° C.", "protocol": "Effect In Situ of the Compounds According to the Invention on the Calpain Enzymatic Activity of Human Skeletal Cells (SKM)\nThe principle of the test is the following: maitotoxin is a toxin which causes the opening of the calcium channels of cells. The resulting intra-cellular flow of calcium is at the origin of the death of the cell. During this process of cell death, a cysteine-dependent protease, calpain, is activated. The test consists of incubating the cells in the presence of maitotoxin, in order to activate the calpain enzyme, and adding a calpain substrate which fluoresces when the enzyme cleaves this substrate. Finally, calpain inhibitors are tested.\nThe myoblasts are seeded at 2500 cells per well in 96-well plates in a DMEM 10% FCS (foetal calf serum) culture medium supplemented with amphotericin B, human recombinant epidermal growth factor and dexamethasone. Three days after seeding, the cells have adhered to the bottom of the well, the differentiation of the cells to myotubes is induced by adding 100 μl of DMEM F12 medium containing 2% horse serum. […] The background noise is determined by preparing additional control wells without MTX. […] The plates are stirred, the fluorescence is read at 380/460 nm using a so-called Victor device at time zero. […]\nThe fluorescence values make it possible to calculate a concentration-effect for each of the compounds. […]"}, "[2]": {"tested_on": "human skeletal cells (SKM)", "assay": "Protective effect on cell death induced by maitotoxin on human skeletal cells (SKM), WST-1", "assay_type": "cell-based", "details": "read-out: EC50 (concentration which protects 50% of the cells from cell death)", "from_the_text": "Protective Effect of the Compounds According to the Invention on Cell Death Induced by Maitotoxin on Human Skeletal Cells (SKM)\nThe principle of the test is the following: maitotoxin is a toxin which causes the opening of the calcium channels of cells. The resulting intra-cellular flow of calcium is at the origin of the death of the cell. During this process of cell death, a cysteine-dependent protease, calpain, is activated, and an abundance of free radicals is produced. The test consists of incubating the cells in the presence of the molecules to be tested, in order to delay or inactivate cell death and thus determine the protective effect.\nThe myoblasts are seeded at 2500 cells per well in 96-well plates in a DMEM 10% FCS (foetal calf serum) culture medium supplemented with amphotericin B, human recombinant epidermal growth factor and dexamethasone. […]\nAfter an incubation time of 3 h or 96 h, the culture medium is replaced by a DMEM 10% FCS medium supplemented by 10% WST-1, WST-1 (Roche, reference 1644807) is a reagent which stains metabolically active cells, i.e. live cells. […] Then the number of live cells is determined using a Perkin-Elmer Wallac Envision 2101 device by reading the absorbance at 450 nm. The concentration-effect of the products on the cell survival fraction is then calculated. […]"}, "[3]": {"details": "compound 50 μM as co-treatment with gentamycin 1 μg/ml"}}, "note": "pEC50, pIC50: −log10 of the molar value. Several values for one entry are separate records, joined by “and”; a condition that tells them apart may be missing. Identical values can stand only once. Like-named read-outs stand apart in the source and are kept apart here.", "data": [{"molecule": "CC(=O)OC1OCC[C@@H]1NC(=O)[C@H](CC(C)C)NC(=N)c1ccc2c(c1)Nc1ccccc1S2.I", "note": "(stereo partly drawn) [Example 4, (3S)-3-({N-[imino(10H-phenothiazin-2-yl)methyl]-L-leucyl}amino)tetrahydrofuran-2-yl acetate hydroiodide]", "values": [{"measurement": "EC50", "setting": "[1]", "result": 51, "unit": "µM"}, {"measurement": "protection of the ciliated cells damaged by the gentamycin treatment", "setting": "[1]; [3]", "result": 36.2, "unit": "%"}, {"measurement": "control % (% staining signal of the ciliated cells)", "setting": "[1]; compound 50 μM as co-treatment with gentamycin 1 μg/ml, 24 hours, 5-day old fish, acetate hydroiodide", "result": "49% and 49 ± 5%"}]}, {"molecule": "CC(C)C[C@H](NC(=N)c1ccc2c(c1)Nc1ccccc1S2)C(=O)N[C@H]1CCOC1O.I", "note": "(stereo partly drawn) [Example 5, N^1-[(3S)-2-hydroxytetrahydrofuran-3-yl]-N^2-[imino(10H-phenothiazin-2-yl)methyl]-L-leucinamide hydroiodide]", "values": [{"measurement": "EC50", "setting": "[1]", "result": 32, "unit": "µM"}, {"measurement": "protection of the ciliated cells damaged by the gentamycin treatment", "setting": "[1]; [3]", "result": 40, "unit": "%"}, {"measurement": "control % (% staining signal of the ciliated cells)", "setting": "[1]; compound 50 μM as co-treatment with gentamycin 1 μg/ml, 24 hours, 5-day old fish, hydroiodide", "result": "52% and 52 ± 10%"}, {"measurement": "pIC50", "setting": "calpain", "result": "> 4.70"}]}, {"molecule": "C[C@H]1C[C@@H]2[C@H]([C@@H](O)C[C@@]3(C)[C@H]2CC[C@]3(O)C(=O)CO)[C@@]2(C)C=CC(=O)C=C12", "note": "[a-methylprednisolone]", "values": [{"measurement": "pEC50", "setting": "[2]; after incubation for 3 hours in the presence of maitotoxin", "result": 3.45}, {"measurement": "pEC50", "setting": "[2]; after incubation for 96 hours in the presence of maitotoxin", "result": 3.71}]}, {"molecule": "Gentamycin [reference compound]", "values": [{"measurement": "loss of the ciliated cells following treatment with gentamycin", "setting": "[1]; gentamycin 1 μg/ml alone, 24 hours", "result": 80, "unit": "%"}, {"measurement": "control % (% staining signal of the ciliated cells)", "setting": "[1]; gentamycin 1 μg/ml alone, 24 hours (negative control)", "result": "20 ± 0.6", "unit": "%"}, {"measurement": "control % (% staining signal of the ciliated cells)", "setting": "[1]; gentamycin 1 μg/ml alone, 24 hours (negative control), listed as gentamycin", "result": 20, "unit": "%"}]}]}
